Read-outs that look alike come from different tables or passages of the source.

For data set [1] the following is noted: Drug/Lipid 0.25, EPC/EPG (1/1), Sucrose 300 mM.
For data set [2], the system named is fluorouracil-induced neutropenia. To be noted: rats; fluorouracil 125mg/kg intraperitoneally; liposomal formulation of Example 4, 35mg/kg, 8 daily intravenous injections; Figure 1. As for the experimental part:
Male CD rats (250-300g) were injected intraperitoneally with either the antineoplastic drug, fluorouracil (125mg/kg) or an equivalent volume of its vehicle (saline). […] Rats originally injected with saline rather than fluorouracil received saline intravenously (n = 7). Blood samples were taken for measurement of neutrophil levels prior to the fluorouracil and every 1 to 2 days thereafter for 14 days.

The procedure of data set [3]:
The lyophilization cycle involved rapid freezing of the sample (2.5 ml fill of 10 ml vial) to a sample temperature of -50°C, followed by lyophilization at a tray temperature of -35°C for 42 hours to remove primary water, and for 2 hours at 20°C to remove secondary water.
The MLVs may be passed (5-10x) through stacked polycarbonate filters (pore size of 80 nm) using an EXTRUDER (Lipex Biomembranes, Vancouver, Canada).

Data set [4] has as its system circulating neutrophil levels. To be noted: normal rats; liposomal formulation of Example 4, 35mg/kg, i.v., 5 daily injections; Figure 2. An excerpt: Blood samples were taken for measurement of neutrophil levels daily.
Data set [5] can be described thus: Particle size of lipid microspheres. To be noted: lipid microspheres after 1.2µm filter, 300 µg/mL. Type of data set: physicochemical. As for the experimental part: Then 2.21 gm of glycerol and enough distilled water to bring the volume to 100 mL(approximately 90 mL) were added, followed by a rough emulsification by means of a homogenizer. The product is then further emulsified by means of a manton gaulin type homogenizer. […]

In the case of `CCOC(=O)C(N)CCC(=O)NC(CSCc1ccccc1)C(=O)N[C@@H](C(=O)OCC)c1ccccc1.Cl` (stereo partly shown) [Compound 9, γ-Glutamyl-S(benzyl)cysteinyl-R-phenyl glycine diethyl ester hydrochloride], the Viscosity result in data set [1] (Lyophilization Time 32 hr) is on record as “Negligible”; in data set [1] (Lyophilization Time 40 hr) it was “Negligible”; in data set [1] (Lyophilization Time 44 hr), “Negligible”; in data set [1] (Lyophilization Time 54 hr) it was “Viscous”; in data set [1] (Lyophilization Time 59 hr), “Very Viscous”. Moreover, the “recovery from chemotherapy-induced neutropenia” value in data set [2] is reported as “accelerated recovery”. In addition, in data set [3] (ethanol dilution, Drug/Lipid 0.25 wt/wt, EPC, comparative example), the “Drug (mg/ml)” value was 16.2. mg/ml. Besides, in data set [3] (removed by extrusion through 80 nm filters), the “precipitated form of the drug” value is reported as below 2%. Also, the circulating neutrophil levels entry in data set [4] is listed as “increased”. Also, the “particles of final emulsion” value in data set [5] was “approximately 220 nM”.

Source of the values: patent EP1143992B1, “THERAPEUTIC COMPOSITIONS CONTAINING GLUTATHIONE ANALOGS” (TELIK, INC., priority 1999, dated 2000).
